Laboratory results: the NIST ThermoML archive (doi:10.1021/je400055v)
Numbers after ± are expanded uncertainties.

Assay: xn = mol fraction of the nth substance listed
Details: Liquid, Vibrating tube method

SMILES: CCCCCCCCCCC [undecane] + CCCCCCC
- mass density (362.91 K, 4000 kPa, x2 = 0.7482): 649.6 ± 0.3 kg/m3
- mass density (362.91 K, 4027 kPa, x2 = 0.2346): 681.7 ± 0.3 kg/m3
- mass density (362.91 K, 5000 kPa, x2 = 0.7482): 650.9 ± 0.3 kg/m3
- mass density (362.91 K, 5028 kPa, x2 = 0.2346): 682.8 ± 0.3 kg/m3
- mass density (362.91 K, 6000 kPa, x2 = 0.7482): 652.2 ± 0.3 kg/m3
- mass density (362.91 K, 6029 kPa, x2 = 0.2346): 683.9 ± 0.3 kg/m3
- mass density (362.91 K, 7000 kPa, x2 = 0.7482): 653.5 ± 0.3 kg/m3
- mass density (362.91 K, 7031 kPa, x2 = 0.2346): 685 ± 0.3 kg/m3
- mass density (362.91 K, 8000 kPa, x2 = 0.7482): 654.7 ± 0.3 kg/m3
- mass density (362.91 K, 8032 kPa, x2 = 0.2346): 686.1 ± 0.3 kg/m3
- mass density (362.91 K, 9000 kPa, x2 = 0.7482): 656 ± 0.3 kg/m3
- mass density (362.91 K, 9033 kPa, x2 = 0.2346): 687.1 ± 0.3 kg/m3
- mass density (362.91 K, 10000 kPa, x2 = 0.7482): 657.2 ± 0.4 kg/m3
- mass density (362.91 K, 10035 kPa, x2 = 0.2346): 688.2 ± 0.3 kg/m3
- mass density (362.91 K, 11000 kPa, x2 = 0.7482): 658.4 ± 0.4 kg/m3
- mass density (362.91 K, 11036 kPa, x2 = 0.2346): 689.2 ± 0.3 kg/m3
- mass density (362.91 K, 12000 kPa, x2 = 0.7482): 659.5 ± 0.4 kg/m3
- mass density (362.91 K, 12037 kPa, x2 = 0.2346): 690.2 ± 0.3 kg/m3
- mass density (362.91 K, 13000 kPa, x2 = 0.7482): 660.7 ± 0.4 kg/m3
- mass density (362.91 K, 13038 kPa, x2 = 0.2346): 691.2 ± 0.4 kg/m3
- mass density (362.91 K, 14000 kPa, x2 = 0.7482): 661.8 ± 0.4 kg/m3
- mass density (362.91 K, 14040 kPa, x2 = 0.2346): 692.2 ± 0.4 kg/m3
- mass density (362.91 K, 15000 kPa, x2 = 0.7482): 662.9 ± 0.4 kg/m3
- mass density (362.91 K, 15041 kPa, x2 = 0.2346): 693.2 ± 0.4 kg/m3
- mass density (362.91 K, 16000 kPa, x2 = 0.7482): 664 ± 0.4 kg/m3
- mass density (362.91 K, 16043 kPa, x2 = 0.2346): 694.1 ± 0.4 kg/m3
- mass density (362.91 K, 17000 kPa, x2 = 0.7482): 665.1 ± 0.4 kg/m3
- mass density (362.91 K, 17044 kPa, x2 = 0.2346): 695.1 ± 0.4 kg/m3
- mass density (362.91 K, 18000 kPa, x2 = 0.7482): 666.2 ± 0.4 kg/m3
- mass density (362.91 K, 18046 kPa, x2 = 0.2346): 696 ± 0.4 kg/m3
- mass density (362.91 K, 19000 kPa, x2 = 0.7482): 667.2 ± 0.4 kg/m3
- mass density (362.91 K, 19047 kPa, x2 = 0.2346): 696.9 ± 0.4 kg/m3
- mass density (362.91 K, 20000 kPa, x2 = 0.7482): 668.3 ± 0.4 kg/m3
- mass density (362.91 K, 20049 kPa, x2 = 0.2346): 697.8 ± 0.4 kg/m3
- mass density (362.91 K, 21000 kPa, x2 = 0.7482): 669.3 ± 0.5 kg/m3
- mass density (362.91 K, 21083 kPa, x2 = 0.2346): 698.8 ± 0.4 kg/m3
- mass density (362.91 K, 22000 kPa, x2 = 0.7482): 670.3 ± 0.5 kg/m3
- mass density (362.91 K, 22086 kPa, x2 = 0.2346): 699.6 ± 0.4 kg/m3
- mass density (362.91 K, 23000 kPa, x2 = 0.7482): 671.3 ± 0.5 kg/m3
- mass density (362.91 K, 23089 kPa, x2 = 0.2346): 700.5 ± 0.4 kg/m3
- mass density (362.91 K, 24000 kPa, x2 = 0.7482): 672.2 ± 0.5 kg/m3
- mass density (362.91 K, 24092 kPa, x2 = 0.2346): 701.4 ± 0.4 kg/m3
- mass density (362.91 K, 25000 kPa, x2 = 0.7482): 673.2 ± 0.5 kg/m3
- mass density (362.91 K, 25095 kPa, x2 = 0.2346): 702.2 ± 0.5 kg/m3
- mass density (362.92 K, 1001 kPa, x2 = 0.05): 686.5 ± 0.3 kg/m3
- mass density (362.92 K, 2001 kPa, x2 = 0.05): 687.6 ± 0.3 kg/m3
